Measurements taken from patent US8758816B2, “Compositions comprising azelastine and methods of use thereof” (priority 2004, dated 2014).

System: patients with seasonal allergic rhinitis (SAR)
Assay: MP 428 study: adverse events, Safety Population
Type: in vivo, human
Method: A two-week, randomized, double-blind study, which evaluated the effects of the co-administration of ASTELIN® (azelastine hydrochloride (HCl)) and FLONASE® (fluticasone propionate) compared to either product alone in patients with seasonal allergic rhinitis (SAR) was conducted during the 2006 Texas mountain cedar season. After a 5-day placebo lead-in period, 151 patients with moderate-to-severe allergic rhinitis symptoms were randomized to either: (1) (49 total patients) ASTELIN® (azelastine hydrochloride (HCl)) plus placebo saline nasal spray 2 sprays per nostril, 15 minutes apart, twice daily (AM & PM); (2) (50 total patients) FLONASE® (fluticasone propionate) plus placebo saline nasal spray, 2 sprays per nostril, 15 minutes apart, once daily (AM) and two sessions of placebo saline nasal spray, 2 sprays per nostril, 15 minutes apart (PM); or (3) (52 total patients) the co-administration of ASTELIN® (azelastine hydrochloride (HCl)) 2 sprays per nostril plus FLONASE® (fluticasone propionate) 2 sprays per nostril (AM), 15 minutes apart, and ASTELIN® (azelastine hydrochloride (HCl)) 2 sprays per nostril plus placebo saline nasal spray, 15 minutes apart, (PM) for a 2-week double-blind treatment period.
The most common adverse events (AEs) were bitter taste (8.2% in ASTELIN® (azelastine hydrochloride (HCl)) group, 2.0% in FLONASE® (fluticasone propionate) group, 13.5% in co-administration group) and headache (4.1% in ASTELIN® (azelastine hydrochloride (HCl)) group, 4.0% in FLONASE® (fluticasone propionate) group, 5.8% in co-administration group). No other AE was reported by more than one patient in any treatment group. There were no discontinuations due to AEs.

[1] = Possibly related to study drug, Safety Population
[2] = Probably related to study drug, Safety Population
[3] = Total (possibly or probably related), Safety Population

CCC(=O)O[C@]1(C(=O)SCF)[C@H](C)C[C@H]2[C@@H]3C[C@H](F)C4=CC(=O)C=C[C@]4(C)[C@@]3(F)[C@@H](O)C[C@@]21C [Fluticasone, fluticasone propionate]
Primary Reason for Discontinuation From Study: Adverse Event (All Randomized Patients): 0 (0.0) N (%)
Number (%) Patients With Treatment-Related AEs by Maximum Severity (Mild): 3 (6.0) Number (%)
Number (%) Patients With Treatment-Related AEs by Maximum Severity (Moderate): 1 (2.0) Number (%)
Treatment-Related Adverse Events: Any Adverse Event [1]: 4 (8.0) No. of Patients (%)
Treatment-Related Adverse Events: DRY MOUTH [1]: 1 (2.0) No. of Patients (%)
Treatment-Related Adverse Events: DYSGEUSIA [1]: 1 (2.0) No. of Patients (%)
Treatment-Related Adverse Events: EPISTAXIS [1]: 0 (0.0) No. of Patients (%)
Treatment-Related Adverse Events: GASTROINTESTINAL DISORDERS, Any Preferred Term [1]: 3 (6.0) No. of Patients (%)
Treatment-Related Adverse Events: HEADACHE [1]: 1 (2.0) No. of Patients (%)
Treatment-Related Adverse Events: NASAL DISCOMFORT [1]: 0 (0.0) No. of Patients (%)
Treatment-Related Adverse Events: NERVOUS SYSTEM DISORDERS, Any Preferred Term [1]: 1 (2.0) No. of Patients (%)
Treatment-Related Adverse Events: RESPIRATORY, THORACIC AND MEDIASTINAL DISORDERS, Any Preferred Term [1]: 0 (0.0) No. of Patients (%)
Treatment-Related Adverse Events: STOMACH DISCOMFORT [1]: 1 (2.0) No. of Patients (%)
Treatment-Related Adverse Events: Any Adverse Event [2]: 0 (0.0) No. of Patients (%)
Treatment-Related Adverse Events: DRY MOUTH [2]: 0 (0.0) No. of Patients (%)
Treatment-Related Adverse Events: DYSGEUSIA [2]: 0 (0.0) No. of Patients (%)
Treatment-Related Adverse Events: EPISTAXIS [2]: 0 (0.0) No. of Patients (%)
Treatment-Related Adverse Events: GASTROINTESTINAL DISORDERS, Any Preferred Term [2]: 0 (0.0) No. of Patients (%)
Treatment-Related Adverse Events: HEADACHE [2]: 0 (0.0) No. of Patients (%)
Treatment-Related Adverse Events: NASAL DISCOMFORT [2]: 0 (0.0) No. of Patients (%)
Treatment-Related Adverse Events: NERVOUS SYSTEM DISORDERS, Any Preferred Term [2]: 0 (0.0) No. of Patients (%)
Treatment-Related Adverse Events: RESPIRATORY, THORACIC AND MEDIASTINAL DISORDERS, Any Preferred Term [2]: 0 (0.0) No. of Patients (%)
Treatment-Related Adverse Events: STOMACH DISCOMFORT [2]: 0 (0.0) No. of Patients (%)
Number (%) Patients With Any AEs: All Treatment-Related AEs (Safety Population): 4 (8.0) Number (%)
Number (%) of Deaths (Safety Population): 0 (0.0) Number (%)
Number (%) of Patients With Serious AEs (Safety Population): 0 (0.0) Number (%)
Number of Adverse Events Reported: All Treatment-Emergent AEs (Safety Population): 5
Number of Adverse Events Reported: All Treatment-Related AEs (Safety Population): 4
Number (%) Patients With Treatment-Related AEs by Maximum Severity (Severe): 0 (0.0) Number (%)
Treatment-Emergent AE: Any Adverse Event (Total): 5 (10.0) No. of Patients (%)
Treatment-Emergent AE: DRY MOUTH (Total): 1 (2.0) No. of Patients (%)
Treatment-Emergent AE: DYSGEUSIA (Total): 1 (2.0) No. of Patients (%)
Treatment-Emergent AE: EAR AND LABYRINTH DISORDERS, Any Preferred Term (Total): 0 (0.0) No. of Patients (%)
Treatment-Emergent AE: EAR PAIN (Total): 0 (0.0) No. of Patients (%)
Treatment-Emergent AE: EPISTAXIS (Total): 0 (0.0) No. of Patients (%)
Treatment-Emergent AE: GASTROINTESTINAL DISORDERS, Any Preferred Term (Total): 3 (6.0) No. of Patients (%)
Treatment-Emergent AE: HEADACHE (Total): 2 (4.0) No. of Patients (%)
Treatment-Emergent AE: MUSCULOSKELETAL AND CONNECTIVE TISSUE DISORDERS, Any Preferred Term (Total): 0 (0.0) No. of Patients (%)
Treatment-Emergent AE: MYALGIA (Total): 0 (0.0) No. of Patients (%)
Treatment-Emergent AE: NASAL DISCOMFORT (Total): 0 (0.0) No. of Patients (%)
Treatment-Emergent AE: NECK PAIN (Total): 0 (0.0) No. of Patients (%)
Treatment-Emergent AE: NERVOUS SYSTEM DISORDERS, Any Preferred Term (Total): 2 (4.0) No. of Patients (%)
Treatment-Emergent AE: PHARYNGOLARYNGEAL PAIN (Total): 0 (0.0) No. of Patients (%)
Treatment-Emergent AE: RESPIRATORY, THORACIC AND MEDIASTINAL DISORDERS, Any Preferred Term (Total): 0 (0.0) No. of Patients (%)
Treatment-Emergent AE: STOMACH DISCOMFORT (Total): 1 (2.0) No. of Patients (%)
Treatment-Related Adverse Events: Any Adverse Event [3]: 4 (8.0) No. of Patients (%)
Treatment-Related Adverse Events: DRY MOUTH [3]: 1 (2.0) No. of Patients (%)
Treatment-Related Adverse Events: DYSGEUSIA [3]: 1 (2.0) No. of Patients (%)
Treatment-Related Adverse Events: EPISTAXIS [3]: 0 (0.0) No. of Patients (%)
Treatment-Related Adverse Events: GASTROINTESTINAL DISORDERS, Any Preferred Term [3]: 3 (6.0) No. of Patients (%)
Treatment-Related Adverse Events: HEADACHE [3]: 1 (2.0) No. of Patients (%)
Treatment-Related Adverse Events: NASAL DISCOMFORT [3]: 0 (0.0) No. of Patients (%)
Treatment-Related Adverse Events: NERVOUS SYSTEM DISORDERS, Any Preferred Term [3]: 1 (2.0) No. of Patients (%)
Treatment-Related Adverse Events: RESPIRATORY, THORACIC AND MEDIASTINAL DISORDERS, Any Preferred Term [3]: 0 (0.0) No. of Patients (%)
Treatment-Related Adverse Events: STOMACH DISCOMFORT [3]: 1 (2.0) No. of Patients (%)
Treatment-Emergent AE: Any Adverse Event (max severity Mild): 4 (8.0) No. of Patients (%)
Treatment-Emergent AE: DRY MOUTH (max severity Mild): 1 (2.0) No. of Patients (%)
Treatment-Emergent AE: DYSGEUSIA (max severity Mild): 1 (2.0) No. of Patients (%)
Treatment-Emergent AE: EAR AND LABYRINTH DISORDERS, Any Preferred Term (max severity Mild): 0 (0.0) No. of Patients (%)
Treatment-Emergent AE: EAR PAIN (max severity Mild): 0 (0.0) No. of Patients (%)
Treatment-Emergent AE: EPISTAXIS (max severity Mild): 0 (0.0) No. of Patients (%)
Treatment-Emergent AE: GASTROINTESTINAL DISORDERS, Any Preferred Term (max severity Mild): 2 (4.0) No. of Patients (%)
Treatment-Emergent AE: HEADACHE (max severity Mild): 2 (4.0) No. of Patients (%)
Treatment-Emergent AE: MUSCULOSKELETAL AND CONNECTIVE TISSUE DISORDERS, Any Preferred Term (max severity Mild): 0 (0.0) No. of Patients (%)
Treatment-Emergent AE: MYALGIA (max severity Mild): 0 (0.0) No. of Patients (%)
Treatment-Emergent AE: NASAL DISCOMFORT (max severity Mild): 0 (0.0) No. of Patients (%)
Treatment-Emergent AE: NECK PAIN (max severity Mild): 0 (0.0) No. of Patients (%)
Treatment-Emergent AE: NERVOUS SYSTEM DISORDERS, Any Preferred Term (max severity Mild): 2 (4.0) No. of Patients (%)
Treatment-Emergent AE: PHARYNGOLARYNGEAL PAIN (max severity Mild): 0 (0.0) No. of Patients (%)
Treatment-Emergent AE: RESPIRATORY, THORACIC AND MEDIASTINAL DISORDERS, Any Preferred Term (max severity Mild): 0 (0.0) No. of Patients (%)
Treatment-Emergent AE: STOMACH DISCOMFORT (max severity Mild): 0 (0.0) No. of Patients (%)
Treatment-Emergent AE: Any Adverse Event (max severity Moderate): 1 (2.0) No. of Patients (%)
Treatment-Emergent AE: DRY MOUTH (max severity Moderate): 0 (0.0) No. of Patients (%)
Treatment-Emergent AE: DYSGEUSIA (max severity Moderate): 0 (0.0) No. of Patients (%)
Treatment-Emergent AE: EAR AND LABYRINTH DISORDERS, Any Preferred Term (max severity Moderate): 0 (0.0) No. of Patients (%)
Treatment-Emergent AE: EAR PAIN (max severity Moderate): 0 (0.0) No. of Patients (%)
Treatment-Emergent AE: EPISTAXIS (max severity Moderate): 0 (0.0) No. of Patients (%)
Treatment-Emergent AE: GASTROINTESTINAL DISORDERS, Any Preferred Term (max severity Moderate): 1 (2.0) No. of Patients (%)
Treatment-Emergent AE: HEADACHE (max severity Moderate): 0 (0.0) No. of Patients (%)
Treatment-Emergent AE: MUSCULOSKELETAL AND CONNECTIVE TISSUE DISORDERS, Any Preferred Term (max severity Moderate): 0 (0.0) No. of Patients (%)
Treatment-Emergent AE: MYALGIA (max severity Moderate): 0 (0.0) No. of Patients (%)
Treatment-Emergent AE: NASAL DISCOMFORT (max severity Moderate): 0 (0.0) No. of Patients (%)
Treatment-Emergent AE: NECK PAIN (max severity Moderate): 0 (0.0) No. of Patients (%)
Treatment-Emergent AE: NERVOUS SYSTEM DISORDERS, Any Preferred Term (max severity Moderate): 0 (0.0) No. of Patients (%)
Treatment-Emergent AE: PHARYNGOLARYNGEAL PAIN (max severity Moderate): 0 (0.0) No. of Patients (%)
Treatment-Emergent AE: RESPIRATORY, THORACIC AND MEDIASTINAL DISORDERS, Any Preferred Term (max severity Moderate): 0 (0.0) No. of Patients (%)
Treatment-Emergent AE: STOMACH DISCOMFORT (max severity Moderate): 1 (2.0) No. of Patients (%)
Treatment-Emergent AE: Any Adverse Event (max severity Severe): 0 (0.0) No. of Patients (%)
Treatment-Emergent AE: DRY MOUTH (max severity Severe): 0 (0.0) No. of Patients (%)
Treatment-Emergent AE: DYSGEUSIA (max severity Severe): 0 (0.0) No. of Patients (%)
Treatment-Emergent AE: EAR AND LABYRINTH DISORDERS, Any Preferred Term (max severity Severe): 0 (0.0) No. of Patients (%)
Treatment-Emergent AE: EAR PAIN (max severity Severe): 0 (0.0) No. of Patients (%)
Treatment-Emergent AE: EPISTAXIS (max severity Severe): 0 (0.0) No. of Patients (%)
Treatment-Emergent AE: GASTROINTESTINAL DISORDERS, Any Preferred Term (max severity Severe): 0 (0.0) No. of Patients (%)
Treatment-Emergent AE: HEADACHE (max severity Severe): 0 (0.0) No. of Patients (%)
Treatment-Emergent AE: MUSCULOSKELETAL AND CONNECTIVE TISSUE DISORDERS, Any Preferred Term (max severity Severe): 0 (0.0) No. of Patients (%)
Treatment-Emergent AE: MYALGIA (max severity Severe): 0 (0.0) No. of Patients (%)
Treatment-Emergent AE: NASAL DISCOMFORT (max severity Severe): 0 (0.0) No. of Patients (%)
Treatment-Emergent AE: NECK PAIN (max severity Severe): 0 (0.0) No. of Patients (%)
Treatment-Emergent AE: NERVOUS SYSTEM DISORDERS, Any Preferred Term (max severity Severe): 0 (0.0) No. of Patients (%)
Treatment-Emergent AE: PHARYNGOLARYNGEAL PAIN (max severity Severe): 0 (0.0) No. of Patients (%)
Treatment-Emergent AE: RESPIRATORY, THORACIC AND MEDIASTINAL DISORDERS, Any Preferred Term (max severity Severe): 0 (0.0) No. of Patients (%)
Treatment-Emergent AE: STOMACH DISCOMFORT (max severity Severe): 0 (0.0) No. of Patients (%)
adverse event: bitter taste (share of treatment group): 2.0%
adverse event: headache (share of treatment group): 4.0%
